Common to all, as to test: relative viability (nuclei count vs DMSO), 5 days (fraction); higher = more cells survive
Compound in assay [1]: C[C@@H](N)c1ccc(C(=O)Nc2ccnc3[nH]ccc23)cc1 + Nc1ncn([C@H]2C[C@H](O)[C@@H](CO)O2)c(=O)n1 [Decitabine] (partner 2 µM)
An outline of the steps:
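Relative viability is defined as nuclei in treated wells over nuclei in vehicle wells. Duplicate plates were run and medians reported. Lung cancer cell lines in 1536-well plates were dosed by pin tool one day after seeding, with one drug or with a fixed anchor-drug dose plus five library-drug doses (not always all listed) in √10 steps, and nuclei were counted after 5 days.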

Compound in assay [2]: C1CNCCC1C2=CC(=NN2)C3=CC=NC=C3
An outline of the steps: (§1)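 Nuclei counted with MetaXpress define viability as the ratio of treated to vehicle wells, given as a median across plates. The lung cancer cell lines were in 1536-well plates, pinned with five √10-spaced library-drug doses and imaged at 4× after 5 days and Hoechst staining. Plates passed with control CV below 25% and at least one doubling.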

Compound in the next assay: O[C@H]1CC[C@H](Nc2ncc3nc(Nc4c(F)cc(F)cc4F)n([C@H]4CCOC4)c3n2)CC1 [Tanzisertib]
An outline of the steps: as §1

Compound in assay [3]: C[C@@H](N)c1ccc(C(=O)Nc2ccnc3[nH]ccc23)cc1
An outline of the steps: as §1

With UMC-11, the relative viability came to 0.608 in assay [1] (first compound 0.1265 µM); 0.604 in assay [1] (first compound 0.4 µM); 0.481 in assay [1] (first compound 1.265 µM); 0.324 in assay [1] (first compound 4 µM); 0.862 in assay [2] (0.08 µM); 1.16 in assay [2] (0.8 µM). Further, the relative viability in assay [2] (2.53 µM) amounted to 1.01; in assay [2] (8 µM), 0.992; in the assay with Tanzisertib (0.08 µM), 1.09; with Tanzisertib (0.253 µM), 0.973; with Tanzisertib (0.8 µM), 1.01; with Tanzisertib (2.53 µM), 0.987. Further, the relative viability with Tanzisertib (8 µM) was determined as 1.01; in assay [3] (0.04 µM), 0.954; in assay [3] (0.1265 µM) it was 1.07; in assay [3] (0.4 µM), 1.16; in assay [3] (1.265 µM), 0.712; in assay [3] (4 µM), 0.784.
